# System: Mycobacterium tuberculosis
# Assay: Antimycobacterial activity against Mycobacterium tuberculosis H37Rv harboring FadD32 mutant after 6 days by resazurin dye based fluorescence assay
# Type: functional
smiles,measurement,value
Cc1cc2nccc(-c3ccccc3)c2c(C)c1-c1ccc(CN2CCOCC2)cc1,MIC90,15.6 µM
CNC(=O)c1cc(-c2ccccc2Cl)c2c(C)c(-c3ccncc3)c(C)cc2n1,MIC90,6.25 µM
